Measured values: patent US20240228489A1, “POSITIVE ALLOSTERIC MODULATORS OF THE MUSCARINIC ACETYLCHOLINE RECEPTOR M1” (Vanderbilt University, priority 2021, published 2024)

Key:
human mAChR M1 [1] = target: T1, human mAChR M1 (Homo sapiens, UniProt P11229); experiment: mAChR M1 cell-based functional assay (calcium mobilization), PAM mode: increase in the EC20 acetylcholine response
T1 sequence (P11229 1-460): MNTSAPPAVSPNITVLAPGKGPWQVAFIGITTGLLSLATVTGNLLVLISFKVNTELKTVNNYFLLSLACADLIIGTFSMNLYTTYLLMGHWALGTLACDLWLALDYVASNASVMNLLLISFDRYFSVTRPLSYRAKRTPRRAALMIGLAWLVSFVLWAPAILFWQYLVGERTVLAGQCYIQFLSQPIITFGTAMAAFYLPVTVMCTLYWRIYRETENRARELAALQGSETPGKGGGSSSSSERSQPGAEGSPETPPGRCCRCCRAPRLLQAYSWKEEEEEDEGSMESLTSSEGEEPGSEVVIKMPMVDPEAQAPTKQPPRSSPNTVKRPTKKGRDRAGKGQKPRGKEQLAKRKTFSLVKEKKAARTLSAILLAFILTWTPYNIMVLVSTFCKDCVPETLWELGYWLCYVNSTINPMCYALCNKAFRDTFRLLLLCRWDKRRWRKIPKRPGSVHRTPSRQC
Outline: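 PAM readout is the concentration-dependent rise in the EC20 acetylcholine calcium signal, fitted to a four-parameter logistic (EC50, Emax). Compounds were preincubated from 4 s before ACh at 144 s (EC20) and 230 s (EC80). hM1-expressing CHO-K1 cells loaded with Fluo-4, FDSS ratio read.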

human mAChR M1 [2] = target: T1, human mAChR M1; experiment: mAChR M1 cell-based functional assay (calcium mobilization), agonist mode: compound alone, Emax relative to acetylcholine maximum; details: for EC50 / Agonist Activity Human M1 EC50: human mAChR M1; for Emax: relative to the maximum for acetylcholine
Outline: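 Agonist activity is the concentration-dependent rise in intracellular calcium (Fluo-4, 1 Hz read) after compound addition, measured before any acetylcholine was added, in stable hM1 CHO-K1 cells. Curves were 11-point, 1:3 dilutions fitted by four-parameter logistic. Emax is given as a fraction of maximal acetylcholine response.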

Row | Structure (SMILES) | EC50 (human mAChR M1 [1]) [µM] | Emax (human mAChR M1 [1]) [%] | EC50 (human mAChR M1 [2]) [µM] | Emax (human mAChR M1 [2]) [%] | Agonist Activity Human M1 EC50 (human mAChR M1 [2])
1 | [2H]C1([2H])c2ncccc2C(=O)N1Cc1c(F)cc(-c2ccnc3nn(C)cc23)cc1Cl [Compound 165, 6-(2-chloro-6-fluoro-4-(2-methyl-2H-pyrazolo[3,4-b]pyridin-4-yl)benzyl)-6,7-dihydro-5H-pyrrolo[3,4-b]pyridin-5-one-7,7-d2] | 0.643 | 93 | ≥ 10 | 16 | –
2 | [2H]C1([2H])c2ncccc2C(=O)N1Cc1c(F)cc(-c2cc(F)c3nn(C)cc3c2)cc1F [Compound 7, 6-(2,6-difluoro-4-(7-fluoro-2-methyl-2H-indazol-5-yl)benzyl)-6,7-dihydro-5H-pyrrolo[3,4-b]pyridin-5-one-7,7-d2] | 0.952 | 53 | – | 4 | Inactive
3 | [2H]C1([2H])c2ncccc2C(=O)N1Cc1c(F)cc(-c2ccc3c(cnn3C([2H])([2H])[2H])c2)cc1F [Compound 101, 6-(2,6-difluoro-4-(1-(methyl-d3)-1H-indazol-5-yl)benzyl)-6,7-dihydro-5H-pyrrolo[3,4-b]pyridin-5-one-7,7-d2] | 1.41 | 75 | – | 3 | Inactive
4 | [2H]C1([2H])c2ncccc2C(=O)N1Cc1c(F)cc(-c2ccc(C(F)(F)F)c3nn(C)cc23)cc1C1CC1 [Compound 207, 6-(2-cyclopropyl-6-fluoro-4-(2-methyl-7-(trifluoromethyl)-2H-indazol-4-yl)benzyl)-6,7-dihydro-5H-pyrrolo[3,4-b]pyridin-5-one-7,7-d2] | 0.673 | 84 | 8.07 | 25 | –
5 | [2H]C1([2H])c2ncccc2C(=O)N1Cc1c(F)cc(-c2cncc3nn(C)cc23)cc1F [Compound 119, 6-(2,6-difluoro-4-(2-methyl-2H-pyrazolo[3,4-c]pyridin-4-yl)benzyl)-6,7-dihydro-5H-pyrrolo[3,4-b]pyridin-5-one-7,7-d2] | ≥ 10 | 63 | – | 3 | Inactive
6 | [2H]C1([2H])c2ncccc2C(=O)N1Cc1c(F)cc(-c2ccc(C3CC3)c3nn(C)cc23)cc1F [Compound 122, 6-(4-(7-cyclopropyl-2-methyl-2H-indazol-4-yl)-2,6-difluorobenzyl)-6,7-dihydro-5H-pyrrolo[3,4-b]pyridin-5-one-7,7-d2] | 0.789 | 77 | – | 3 | Inactive
7 | [2H]C1([2H])c2ncccc2C(=O)N1Cc1c(F)cc(-c2cnc3nn(C)cc3c2)cc1F [Compound 3, 6-(2,6-difluoro-4-(2-methyl-2H-pyrazolo[3,4-b]pyridin-5-yl)benzyl)-6,7-dihydro-5H-pyrrolo[3,4-b]pyridin-5-one-7,7-d2] | 0.9 | 56 | 6.92 | 31 | –
8 | [2H]C1([2H])c2ncccc2C(=O)N1Cc1c(F)cc(-c2ccc(C(F)(F)F)c3c2cnn3C([2H])([2H])[2H])cc1F [Compound 244, 6-(2,6-difluoro-4-(1-(methyl-d3)-7-(trifluoromethyl)-1H-indazol-4-yl)benzyl)-6,7-dihydro-5H-pyrrolo[3,4-b]pyridin-5-one-7,7-d2] | > 10 | 34 | – | 2 | Inactive
9 | [2H]C1([2H])c2ncccc2C(=O)N1Cc1c(F)cc(-c2ccnc3nn(C)cc23)cc1F [Compound 2, 6-(2,6-difluoro-4-(2-methyl-2H-pyrazolo[3,4-b]pyridin-4-yl)benzyl)-6,7-dihydro-5H-pyrrolo[3,4-b]pyridin-5-one-7,7-d2] | 0.98 | 57 | 7.7 | 34 | –
10 | [2H]C1([2H])c2ncccc2C(=O)N1Cc1c(F)cc(-c2ccc(OCCOC)c3nn(C)cc23)cc1C1CC1 [Compound 203, 6-(2-cyclopropyl-6-fluoro-4-(7-(2-methoxyethoxy)-2-methyl-2H-indazol-4-yl)benzyl)-6,7-dihydro-5H-pyrrolo[3,4-b]pyridin-5-one-7,7-d2] | 0.815 | 75 | 2.56 | 63 | –
11 | [2H]C1([2H])c2ncccc2C(=O)N1Cc1c(F)cc(-c2cccc3c2cnn3C2COC2)cc1F [Compound 66, 6-(2,6-difluoro-4-(1-(oxetan-3-yl)-1H-indazol-4-yl)benzyl)-6,7-dihydro-5H-pyrrolo[3,4-b]pyridin-5-one-7,7-d2] | 2.17 | 74 | – | 2 | Inactive
12 | [2H]C1([2H])c2ncccc2C(=O)N1Cc1c(F)cc(-c2ccc(F)c3nn(C)cc23)cc1OCC(C)C [Compound 214, 6-(2-fluoro-4-(7-fluoro-2-methyl-2H-indazol-4-yl)-6-isobutoxybenzyl)-6,7-dihydro-5H-pyrrolo[3,4-b]pyridin-5-one-7,7-d2] | 1.29 | 79 | – | 2 | Inactive
13 | [2H]C1([2H])c2ncccc2C(=O)N1Cc1c(F)cc(-c2cnc(OC)c3c2cnn3C)cc1F [Compound 253, 6-(2,6-difluoro-4-(7-methoxy-1-methyl-1H-pyrazolo[3,4-c]pyridin-4-yl)benzyl)-6,7-dihydro-5H-pyrrolo[3,4-b]pyridin-5-one-7,7-d2] | > 10 | 27 | – | 2 | Inactive
14 | [2H]C([2H])([2H])Oc1ccc(-c2cc(F)c(CN3C(=O)c4cccnc4C3([2H])[2H])c(F)c2)c2cnn(C([2H])([2H])[2H])c12 [Compound 95, 6-(2,6-difluoro-4-(7-(methoxy-d3)-1-(methyl-d3)-1H-indazol-4-yl)benzyl)-6,7-dihydro-5H-pyrrolo[3,4-b]pyridin-5-one-7,7-d2] | 1.4 | 72 | – | 3 | Inactive

The next compounds have a lower EC50 (human mAChR M1 [1]) than those just listed; values first:

Row | EC50 (human mAChR M1 [1]) [µM] | Emax (human mAChR M1 [1]) [%] | EC50 (human mAChR M1 [2]) [µM] | Emax (human mAChR M1 [2]) [%] | Agonist Activity Human M1 EC50 (human mAChR M1 [2]) | Structure (SMILES)
15 | 0.433 | 85 | ≥ 10 | 37 | – | [2H]C1([2H])c2ncccc2C(=O)N1Cc1c(C)cc(-c2ccc(C)c3nn(C)cc23)cc1F [Compound 197, 6-(4-(2,7-dimethyl-2H-indazol-4-yl)-2-fluoro-6-methylbenzyl)-6,7-dihydro-5H-pyrrolo[3,4-b]pyridin-5-one-7,7-d2]
16 | 0.263 | 84 | 8.6 | 28 | – | [2H]C1([2H])c2ncccc2C(=O)N1Cc1c(F)cc(-c2cccc3nn(C([2H])([2H])[2H])cc23)cc1F [Compound 31, 6-(2,6-Difluoro-4-(2-(methyl-d3)-2H-indazol-4-yl)benzyl)-6,7-dihydro-5H-pyrrolo[3,4-b]pyridin-5-one-7,7-d2]
17 | 0.243 | 74 | 8.27 | 32 | – | [2H]C1([2H])c2ncccc2C(=O)N1Cc1c(F)cc(-c2ccc(OC3CC3)c3nn(C)cc23)cc1F [Compound 124, 6-(4-(7-cyclopropoxy-2-methyl-2H-indazol-4-yl)-2,6-difluorobenzyl)-6,7-dihydro-5H-pyrrolo[3,4-b]pyridin-5-one-7,7-d2]
18 | 0.237 | 46 | – | 2 | Inactive | [2H]C1([2H])c2ncccc2C(=O)N1Cc1c(F)cc(-c2cc(F)cc3nn(C([2H])([2H])[2H])cc23)cc1F [Compound 86, 6-(2,6-difluoro-4-(6-fluoro-2-(methyl-d3)-2H-indazol-4-yl)benzyl)-6,7-dihydro-5H-pyrrolo[3,4-b]pyridin-5-one-7,7-d2]
19 | 0.488 | 85 | > 10 | 9 | – | [2H]C1([2H])c2ncccc2C(=O)N1Cc1ccc(-c2ccc(F)c3nn(C)cc23)cc1C [Compound 48, 6-(4-(7-fluoro-2-methyl-2H-indazol-4-yl)-2-methylbenzyl)-6,7-dihydro-5H-pyrrolo[3,4-b]pyridin-5-one-7,7-d2]
20 | 0.119 | 84 | 7.52 | 37 | – | [2H]C1([2H])c2ncccc2C(=O)N1Cc1c(F)cc(-c2cccc3nn(C([2H])([2H])[2H])cc23)cc1C1CC1 [Compound 190, 6-(2-Cyclopropyl-6-fluoro-4-(2-(methyl-d3)-2H-indazol-4-yl)benzyl)-6,7-dihydro-5H-pyrrolo[3,4-b]pyridin-5-one-7,7-d2]
21 | 0.198 | 79 | 3.73 | 43 | – | [2H]C1([2H])c2ncccc2C(=O)N1Cc1c(C)cc(-c2ccc(OC)c3nn(C)cc23)cc1F [Compound 195, 6-(2-fluoro-4-(7-methoxy-2-methyl-2H-indazol-4-yl)-6-methylbenzyl)-6,7-dihydro-5H-pyrrolo[3,4-b]pyridin-5-one-7,7-d2]
22 | 0.594 | 86 | 5.46 | 16 | – | [2H]C1([2H])c2ncccc2C(=O)N1Cc1c(F)cc(-c2cc(C)cc3nn(C)cc23)cc1F [Compound 32, 6-(4-(2,6-dimethyl-2H-indazol-4-yl)-2,6-difluorobenzyl)-6,7-dihydro-5H-pyrrolo[3,4-b]pyridin-5-one-7,7-d^2]
